Measured values taken from patent US20080220497A1, “Modulation of protein functionalities” (priority 2003, published 2008).

Tests used:
p38-alpha kinase = p38-alpha kinase (Homo sapiens, UniProt Q16539); conditions: time-dependent if IC50 values decrease with reaction time (more than two-fold in four hours)
Experimental: This dilution can be done automatically on a Tecan (or similar) robotic workstation or performed manually. • 3. […] This step can be performed automatically on a Tecan (or similar) robotic workstation or performed manually. • 4. Incubate at 30° C. or room temp for 2 h, depending on protein stability. • 5. Read at emission wavelength 420 nm upon excitation at 340 nm.

[1] = target: T1, unphosphorylated p38-alpha kinase (Homo sapiens, UniProt Q16539, DEL261-261); assay: Thermal denaturation of unphosphorylated p38-alpha kinase; format: binding; conditions: for ΔTm (° C.) relative to unphosphorylated apo p38: […] p38-alpha kinase, 15 μM small molecule
T1 construct: 48 (6×His-TEV tag, full length); 6×His-TEV tag (N); purchased Decode Genetics, Inc; host or cells: E. coli
T1 sequence (Q16539 with tags, fused parts or gaps DEL261-261): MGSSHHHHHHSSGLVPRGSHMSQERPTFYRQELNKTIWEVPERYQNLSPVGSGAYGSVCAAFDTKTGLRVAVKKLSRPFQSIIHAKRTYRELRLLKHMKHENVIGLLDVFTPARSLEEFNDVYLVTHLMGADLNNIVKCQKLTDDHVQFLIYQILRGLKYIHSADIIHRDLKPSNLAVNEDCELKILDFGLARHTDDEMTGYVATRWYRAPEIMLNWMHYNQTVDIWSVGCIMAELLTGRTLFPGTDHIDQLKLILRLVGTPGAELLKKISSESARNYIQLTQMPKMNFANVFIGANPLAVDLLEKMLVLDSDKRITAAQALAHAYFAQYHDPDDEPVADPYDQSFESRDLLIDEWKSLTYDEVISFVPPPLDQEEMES
Excerpt: (§1) Denaturation was monitored by measuring the absolute absorbance of the solutions at an appropriate wavelength (typically 230 nm and 240 nm) as a function of temperature. As the protein became denatured, additional UV absorbing functional groups became exposed causing an increase in absorbance at the melting temperature. […] The thermal data were collected using Agilent spectrophotometers and ChemStation UV/Vis Thermal Denaturation software.
The final protein and buffer solution was mixed gently using a pipetter to minimize denaturing due to over aggressive mixing. The final solution was transferred to a 50 μL cuvette for analysis.
(§2) The final solution was transferred to a 50 μL cuvette for analysis.
(§3) A first derivative calculation with data smoothing was applied to the resulting data to report the point of inflection as the melting temperature.

[2] = target: T2, doubly phosphorylated p38-alpha kinase (Homo sapiens, UniProt Q16539); assay: Thermal denaturation of doubly phosphorylated p38-alpha kinase; format: binding; conditions: for ΔTm (° C.) relative to doubly phosphorylated p38: 0.5 μM p38-alpha kinase, 20 μM small molecule
T2 construct: 6xHis ([…], seen only in the listing) (C); purchased Roche Applied Diagnostics
T2 sequence (Q16539 with tags, fused parts or gaps): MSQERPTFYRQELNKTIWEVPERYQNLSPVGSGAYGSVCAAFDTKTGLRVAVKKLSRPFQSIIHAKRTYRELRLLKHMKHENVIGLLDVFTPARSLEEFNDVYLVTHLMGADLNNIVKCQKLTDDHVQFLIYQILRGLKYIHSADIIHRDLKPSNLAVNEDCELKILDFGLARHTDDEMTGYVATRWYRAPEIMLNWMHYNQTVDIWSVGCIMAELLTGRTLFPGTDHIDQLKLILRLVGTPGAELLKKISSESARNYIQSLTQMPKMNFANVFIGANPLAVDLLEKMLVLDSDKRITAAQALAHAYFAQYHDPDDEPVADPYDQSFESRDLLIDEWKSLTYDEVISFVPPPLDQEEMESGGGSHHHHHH
Experimental: as §1
The final concentration was 0.5 μM p38-alpha kinase and 20 μM small molecule. The final protein and buffer solution was mixed gently using a pipetter to minimize denaturing due to over aggressive mixing. The final solution was transferred to a 50 μL cuvette for analysis.
The protein and buffer solution was mixed gently using a pipetter to minimize denaturing due to over aggressive mixing. The final solution was transferred to a 50 μL cuvette for analysis.
as §3

[3] = target: T2, doubly phosphorylated p38-alpha kinase; assay: Fluorescence affinity assay, doubly phosphorylated p38-alpha kinase; format: binding; conditions: ~24 nM enzyme; 1.0 uM SKF-86002; read-out: FP IC50 P-p38-alpha
Excerpt: (§4) This fluorescence affinity assay is utilized in an affinity-based screen to identify small molecules which bind into switch control pockets of protein kinases. Binding of small molecule switch inhibitors displaces the switch control ligand phenylalanine of the DFG motif into an orientation which sterically blocks the ATP pocket. Such inhibitor-induced blockade of the ATP pocket is registered as an inhibition of binding of the fluoroprobe into the ATP pocket.
(§5) • 1. p38-alpha kinase • a. […] Polarstar Optima plate reader (BMG)
• 1. […] This dilution can be done automatically on a Tecan (or similar) robotic workstation or performed manually. • 3. Mix Solution A with the diluted compound solutions following Step 3 of Table 22. This step can be performed automatically on a Tecan (or similar) robotic workstation or performed manually. • 4. Incubate at 30° C. or room temp for 2 h, depending on protein stability. • 5. Read at emission wavelength 420 nm upon excitation at 340 nm. […]
(§6) A ratio greater than 1.0 indicates a preference for inhibiting the unphosphorylated form of p38-alpha kinase relative to the doubly phosphorylated form. A ratio less than 1.0 indicates a preference for inhibiting the doubly phosphorylated form of p38-alpha kinase relative to the unphosphorylated form.

[4] = target: T1, unphosphorylated p38-alpha kinase; assay: Fluorescence affinity assay, unphosphorylated p38-alpha kinase; format: binding; conditions: for Ratio IC50s: doubly phosphorylated vs unphosphorylated p38-alpha, >1.0 = preference for unphosphorylated form; for IC50: ~24 nM enzyme, 1.0 uM SKF-86002, read-out: FP IC50 U-p38-alpha
Excerpt: as §4, §5
• 1. […] This dilution can be done automatically on a Tecan (or similar) robotic workstation or performed manually. • 3. Mix Solution A with the diluted compound solutions following Step 3 of Table 22. This step can be performed automatically on a Tecan (or similar) robotic workstation or performed manually. • 4. Incubate at 30° C. or room temp for 2 h, depending on protein stability. • 5. Read at emission wavelength 420 nm upon excitation at 340 nm.
The reaction was initiated by addition of the enzyme. […] By comparison of RFU (relative fluorescence units) values with that of a control (in the absence of small molecule modulators), the percentage of inhibition at each concentration of the small molecules was calculated. IC50 values for the small molecule modulators were calculated from the % inhibition values obtained at a range of concentrations of the small molecule modulators using Prism (available from GraphPad, Inc.). When time-dependent inhibition was assessed, the plate was read at multiple reaction times such as 0.5, 1, 2, 3, 4 and 6 hours. The IC50 values were calculated at each time point. An inhibition was assigned as time-dependent if the IC50 values decrease with the reaction time (more than two-fold in four hours).
as §6

V599E Braf kinase = target: T3, V599E Braf kinase (Homo sapiens, UniProt P15056, V600E); assay: Thermal denaturation of oncogenic V599E Braf kinase; format: binding; conditions: 1.4 μM V599E Braf kinase, 20 μM small molecule; read-out: ΔTm (° C.) relative to unphosphorylated B-Raf(V599E)
T3 construct: 6×His-tag (N); made in house; host or cells: Sf9 insect cells (baculovirus)
T3 sequence (P15056 with tags, fused parts or gaps V600E): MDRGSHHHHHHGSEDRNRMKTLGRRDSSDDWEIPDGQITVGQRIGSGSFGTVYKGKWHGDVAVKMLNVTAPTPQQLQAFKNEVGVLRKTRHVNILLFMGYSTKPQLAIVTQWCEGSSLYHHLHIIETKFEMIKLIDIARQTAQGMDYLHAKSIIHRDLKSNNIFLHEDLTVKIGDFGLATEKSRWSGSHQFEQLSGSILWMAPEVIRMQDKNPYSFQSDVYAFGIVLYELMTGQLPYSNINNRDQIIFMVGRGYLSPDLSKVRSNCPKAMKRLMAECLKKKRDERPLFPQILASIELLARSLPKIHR
Experimental: as §1, §2, §2, §3

Abl kinase = assay: Thermal denaturation of Abl kinase; format: binding, human; conditions: 1 μM Abl kinase, 20 μM small molecule
Experimental: as §1
5 μL of 40 μM Abl kinase was mixed with 195 μL of the small molecule/buffer solution. The final concentration was 1 μM Abl kinase and 20 μM small molecule. The final protein and buffer solution was mixed gently using a pipetter to minimize denaturing due to over aggressive mixing. The final solution was transferred to a 50 μL cuvette for analysis.
Test solutions containing only the Abl kinase were prepared as follows: 5 μL of 40 μM Abl kinase was mixed with 195 μL Buffer to give a concentration of 1 μM Abl kinase in Buffer. The protein and buffer solution was mixed gently using a pipetter to minimize denaturing due to over aggressive mixing. The final solution was transferred to a 50 μL cuvette for analysis.
as §3

Chain of p38-alpha kinase (Q16539 whole entry): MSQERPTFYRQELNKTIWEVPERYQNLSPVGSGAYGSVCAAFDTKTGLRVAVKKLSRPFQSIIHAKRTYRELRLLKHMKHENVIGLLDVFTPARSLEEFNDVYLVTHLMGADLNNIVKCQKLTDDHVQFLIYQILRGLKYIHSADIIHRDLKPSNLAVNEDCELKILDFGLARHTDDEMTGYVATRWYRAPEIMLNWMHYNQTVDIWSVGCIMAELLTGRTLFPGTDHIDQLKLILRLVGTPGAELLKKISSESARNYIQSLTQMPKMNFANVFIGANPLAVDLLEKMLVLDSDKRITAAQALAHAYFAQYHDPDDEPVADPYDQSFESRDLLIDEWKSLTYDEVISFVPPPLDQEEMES

| Compound | ΔTm (° C.) relative to unphosphorylated apo p38 [1] | ΔTm (° C.) relative to doubly phosphorylated p38 [2] | IC50 [3] | Ratio IC50s [4] | IC50 [4] | other results |
| --- | --- | --- | --- | --- | --- | --- |
| CC1(C(=O)O)CC2(C)CC(C)(C1)C(=O)N(Cc1cccc(-n3nc(C(C)(C)C)cc3NC(=O)Nc3cccc4ccccc34)c1)C2=O (stereo not shown) [Example 11] | – | – | – | – | – | Time-dependent (p38-alpha kinase): No |
| CC1(C(=O)O)CC2(C)CC(C)(C1)C(=O)N(Cc1cccc(-n3nc(C(C)(C)C)cc3NC(=O)Nc3ccc(Cl)cc3)c1)C2=O (stereo not shown) [Example 12] | – | – | – | – | – | Time-dependent (p38-alpha kinase): No |
| CC(C)(C)c1cc(NC(=O)Nc2cccc3ccccc23)n(-c2cccc(CC(=O)N3CCOCC3)c2)n1 [Example 21, 1-(3-tert-butyl-1-(3-(2-morpholino-2-oxoethyl)phenyl)-1H-pyrazol-5-yl)-3-(naphthalen-1-yl)urea] | – | – | – | – | – | Time-dependent (p38-alpha kinase): Yes |
| CC(C)(C)c1cc(NC(=O)Nc2ccc(Cl)cc2)n(-c2ccc(CO)cc2)n1 [Example 61] | 8.5 °C | 5.9 °C | 19 nM | 0.8 | 24 nM | – |
| O=C(Nc1cccc(Cl)c1Cl)Nc1cc(-c2ccccc2)nn1-c1cccc(CO)c1 [Example 63] | 9.4 °C | 5.0 °C | 85 nM | – | 28 nM | – |
| CC(C)(C)c1cc(NC(=O)Nc2cccc(Cl)c2Cl)n(-c2cccc(CC(N)=O)c2)n1 [Example 69] | – | – | – | – | – | Thermal denaturation assay ΔTm ([1]; unphosphorylated p38-alpha kinase): 13.10 °; Thermal denaturation assay ΔTm ([2]; phosphorylated p38-alpha kinase): 9.1 ° |
| CC1(O)CCN(C(=O)Cc2ccc(-n3nc(C(C)(C)C)cc3NC(=O)Nc3cccc(Cl)c3Cl)cc2)CC1 [Example 70] | 12.6 °C | 8.7 °C | 26 nM | 2.3 | 26 nM | – |
| CC(C)(C)c1cc(NC(=O)Nc2cccc3ccccc23)n(-c2cccc(CO)c2)n1 [Example 71] | 10.9 °C | 9.6 °C | 19 nM | 1.1 | 17 nM | – |
| CC(C)(C)c1cc(NC(=O)Nc2cccc3ccccc23)n(-c2ccc(C(O)C(F)(F)F)cc2)n1 (stereo not shown) [Example 73] | 8.9 °C | 5.9 °C | – | – | – | – |
| CC(C)(C)c1cc(NC(=O)Nc2cccc3ccccc23)n(-c2cccc(C(C)(C)O)c2)n1 [Example 75] | 8.2 °C | 5.6 °C | 119 nM | 0.7 | 165 nM | – |
| CC(C)(C)c1cc(NC(=O)Nc2cccc(Cl)c2Cl)n(-c2ccc(CC(N)=O)cc2)n1 [Example 76] | 13.1 °C | 9.4 °C | 26 nM | – | – | – |
| NC(=O)Cc1cccc(-n2nc(-c3ccccc3)cc2NC(=O)Nc2cccc(Cl)c2Cl)c1 [Example 77] | 8.0 °C | 5.3 °C | 57 nM | 1.1 | 25 nM | – |
| NC(=O)Cc1cccc(-n2nc(-c3cscn3)cc2NC(=O)Nc2cccc(Cl)c2Cl)c1 [Example 78] | 6.7 °C | 3.9 °C | 195 nM | 1.5 | 233 nM | – |
| CNC(=O)Cc1cccc(-n2nc(C(C)(C)C)cc2NC(=O)Nc2cccc(Cl)c2Cl)c1 [Example 79] | – | – | – | – | – | ΔTm at 20 µM (V599E Braf kinase): 12 °C |
| CC(C)(C)c1cc(NC(=O)Nc2cccc(Cl)c2Cl)n(-c2ccc3c(c2)CN(S(C)(=O)=O)CC3)n1 [Example 80] | – | – | – | – | – | ΔTm (° C.) relative to unphosphorylated Abl (Abl kinase): 2.3 °C; ΔTm at 20 µM (V599E Braf kinase): 14.6 °C |
| CC(C)(C)c1cc(NC(=O)Nc2cccc(Cl)c2Cl)n(-c2ccc3c(c2)CCC(=O)N3)n1 [Example 81] | – | – | – | – | – | ΔTm at 20 µM (V599E Braf kinase): 17.3 °C |
| CC(C)(C)c1cc(NC(=O)Nc2cccc(Cl)c2Cl)n(-c2ccc3c(c2)CCNC3=O)n1 [Example 82] | – | – | – | – | – | ΔTm at 20 µM (V599E Braf kinase): 13.5 °C |
| CC(C)(C)c1cc(NC(=O)Nc2cccc3ccccc23)n(-c2cccc(C(C)(C)O)c2)n1 [Example 83] | – | – | – | – | – | ΔTm at 20 µM (V599E Braf kinase): 14.9 °C |
| CC(C)(C)c1cc(NC(=O)Nc2cccc(Cl)c2Cl)n(-c2ccc(CC(N)=O)cc2)n1 [Example 84] | – | – | – | – | – | ΔTm at 20 µM (V599E Braf kinase): 12.5 °C |
| CC(C)(C)c1cc(NC(=O)Nc2ccc(Cl)cc2)n(-c2cccc(CO)c2)n1 [Example 85] | – | – | – | – | – | ΔTm at 20 µM (V599E Braf kinase): 2.9 °C |
| CC(C)(C)c1cc(NC(=O)Nc2cccc(Cl)c2Cl)n(-c2cc(CNC(=O)NS(C)(=O)=O)c3ccccc3c2)n1 [Example 86] | – | – | – | – | – | ΔTm (° C.) relative to unphosphorylated Abl (Abl kinase): 4.0 °C |
| CC(C)(C)c1cc(NC(=O)Nc2cccc(Cl)c2Cl)n(-c2cc(CO)c3ccccc3c2)n1 [Example 87] | – | – | – | – | – | ΔTm (° C.) relative to unphosphorylated Abl (Abl kinase): 3.6 °C |
| CC(=O)N1CCc2ccc(-n3nc(C(C)(C)C)cc3NC(=O)Nc3cccc(Cl)c3Cl)cc2C1 [Example 88] | – | – | – | – | – | ΔTm (° C.) relative to unphosphorylated Abl (Abl kinase): 1.2 °C |
| CC(C)(C)c1cc(NC(=O)Nc2cccc(Cl)c2Cl)n(-c2ccc3c(c2)C(N)=NCC3)n1 [Example 89] | – | – | – | – | – | ΔTm (° C.) relative to unphosphorylated Abl (Abl kinase): 1.8 °C |
| CC(C)(C)c1cc(NC(=O)Nc2cccc(Cl)c2Cl)n(-c2cccc(C(=N)N)c2)n1 [Example 90] | – | – | – | – | – | ΔTm (° C.) relative to unphosphorylated Abl (Abl kinase): 1.3 °C |
| COc1ccc(-n2nc(C(C)(C)C)cc2NC(=O)Nc2cccc(Cl)c2Cl)cc1 [Example 91] | – | – | – | – | – | ΔTm (° C.) relative to unphosphorylated Abl (Abl kinase): 12.5 °C |
| CC(C)(C)c1cc(NC(=O)Nc2cccc3ccccc23)n(-c2ccc(OCC(=O)O)cc2)n1 [Example 92] | – | – | 160 nM | 3.1 | 52 nM | – |
| CC(C)(C)c1cc(NC(=O)Nc2cccc(Oc3cccnc3)c2)n(-c2cccc(CC(N)=O)c2)n1 [Example 93, 1-(1-(3-(2-amino-2-oxoethyl)phenyl)-3-tert-butyl-1H-pyrazol-5-yl)-3-(3-(pyridin-3-yloxy)phenyl)urea] | – | – | 39 nM | 2.4 | 16 nM | – |
| Cc1ccc(NC(=O)Nc2cc(C(C)(C)C)nn2-c2ccc3c(c2)CCNC3)cc1Nc1ncccn1 [Example 94, 1-(3-tert-butyl-1-(1,2,3,4-tetrahydroisoquinolin-6-yl)-1H-pyrazol-5-yl)-3-(4-methyl-3-(pyrimidin-2-ylamino)phenyl)urea] | – | – | 19 nM | 1.9 | 10 nM | – |
| CC(C)(C)c1cc(NC(=O)Nc2cccc(Cl)c2Cl)n(-c2ccc(CC(=O)N3CCS(=O)(=O)CC3)cc2)n1 [Example 96] | – | – | 8 nM | 3.0 | 7 nM | – |
